Laboratory results published in patent publication US20250011365A1, “ECHINOCANDIN-BASED DRUG, AND PREPARATION METHOD THEREFOR AND USE THEREOF” (Shenzhen Sungening Biological Co., Ltd, priority 2023, published 2025).
Numbered stars: 1 amine (or outer) side, 2 acyl side, 3 side chain; on linkers, the order of the positions; unused ones are H or OH. Bridge positions count the residues as written; N and C are the ends. Square brackets hold non-standard residues; d marks the D form. Peptide text beside a SMILES is read from it. * marks the point of attachment. Orn(4R-OH,5R-OCH2CH2NMe3+) = C[N+](C)(C)CCO[C@@H](N[*:3])[C@H](O)C[C@H](N[*:1])C(=O)[*:2]; hTyr(3S-OH,4S-OH) = N[C@H](C(=O)O)[C@H](O)[C@@H](O)c1ccc(O)cc1; X4 = CCCCCOc1c(F)cc(C#Cc2ccc3cc(C(=O)*)ccc3c2)cc1F; Pro(3S-OH,4S-Me) = C[C@H]1CN[C@H](C(=O)O)[C@H]1O; X3 = CCCCCOc1ccc(C#Cc2ccc3cc(C(=O)*)ccc3c2)cc1F; Hyp = O=C(O)[C@@H]1C[C@@H](O)CN1

What was measured:
Type in all cases: cell-based
[1] = tested on: Aspergillus fumigatus ATCC 204305; test: MEC assay, Aspergillus standard strain (CLSI M38-A2); settings: 21-26 h, 28° C.
Experimental: After gradient dilution of test compounds, an MIC assay was performed on a Candida standard strain, and an MEC assay was performed on an Aspergillus standard strain.
The colonies on the plate were covered with 0.85% physiological saline (1 mL) or sterile water (polysorbate 20 was added to a final concentration of 0.1%-0.01%). […] The resuspension of spore hyphae was transferred to a sterile test tube, and left to stand for 3-5 min to precipitate heavier particles. The homogeneous suspension on the upper layer was transferred to a new sterile test tube, and the tube was capped closely, and subjected to vortex shaking for 15 s (note: the suspension can produce an aerosol when the cap is reopened). The concentration of the suspension was adjusted to an OD value of 0.09-0.13 at 530 nm by using a spectrophotometer. […] Within 2 h after dilution, 100 μL of the diluted suspension was added to each well in a 96-well plate (the concentration of spores in the final drug sensitive plate should be 0.4×10^4-5×10^4 CFU/mL).
In order to accurately determine MEC value, vortex oscillation should not be allowed before reading the plate.

C. tropicalis ATCC 750 = test: MIC assay, Candida standard strain (CLSI M27-A3); settings: ATCC750, 24 h, 35° C.
Experimental: (§1) After gradient dilution of test compounds, an MIC assay was performed on a Candida standard strain, and an MEC assay was performed on an Aspergillus standard strain. […] A cryopreserved strain was passaged at least 2 times. A single colony was picked and resuspended in a physiological saline or sterile water tube, and the tube was subjected to vortex shaking. The Candida suspension was adjusted to 0.5 McF (1×10^6-5×10^6 CFU/mL) at a wavelength of 530 nm by using a spectrophotometer. After being diluted 50 times with physiological saline, the Candida suspension was diluted 20 times with 1×RPMI 1640 broth (1×10^3-5×10^3 CFU/mL). 10 μL of the diluted Candida suspension was coated on an SDA plate for colony counting, with a range of about 10-50 single colonies. After a prepared drug sensitive plate was completely dissolved at room temperature, the Candida suspension was added to the 96-well plate by using a multi-channel pipettor at 100 μL/well. At this time, the concentration of Candida in each well should be 0.5×10^3-2.5×10^3 CFU/mL. A yeast-type fungus assay plate was placed in an incubator, and incubated for 24 h at 35° C. and 85% humidity, and then the MIC values were read. For echinocandin-based drugs, Aspergillus was incubated for 21-26 h at 28° C., and then the MEC results were read. Yeast-type fungi: A 96-well plate was attached with a disposable parafilm, shaken for uniformly mixing, and observed with naked eyes by using a plate reader microscope. […] Pictures were taken and saved by using an automated plate reader.

[2] = tested on: Candida albicans ATCC 90028; test: MIC assay, Candida standard strain (CLSI M27-A3); settings: ATCC90028, 24 h, 35° C., >50% growth inhibition
Experimental: as §1

[3] = tested on: Candida albicans ATCC MYA-1023; test: MIC assay, Candida standard strain (CLSI M27-A3); settings: 24 h, 35° C.
Experimental: as §1

C. krusei ATCC 6258 = test: MIC assay, Candida standard strain (CLSI M27-A3); settings: Pichia kudriavzevii, ATCC6258; C. krusei ATCC 6258 (quality-control strain); 24 h, 35° C.
Experimental: as §1

[4] = tested on: Candida albicans ATCC 10231; test: MIC assay, Candida standard strain (CLSI M27-A3); settings: ATCC10231, 24 h, 35° C., >50% growth inhibition
Experimental: as §1

[5] = tested on: Candida albicans ATCC 90029; test: MIC assay, Candida standard strain (CLSI M27-A3); settings: ATCC90029, 24 h, 35° C.
Experimental: as §1

C. glabrata ATCC 15126 = test: MIC assay, Candida standard strain (CLSI M27-A3); settings: Nakaseomyces glabratus, ATCC15126, 24 h, 35° C.
Experimental: as §1

[6] = tested on: Candida albicans ATCC MYA-574; test: MIC assay, Candida standard strain (CLSI M27-A3); settings: 24 h, 35° C.
Experimental: as §1

[7] = tested on: Candida albicans ATCC 14053; test: MIC assay, Candida standard strain (CLSI M27-A3); settings: ATCC14053, 24 h, 35° C.
Experimental: as §1

[8] = tested on: Candida albicans ATCC 64124; test: MIC assay, Candida standard strain (CLSI M27-A3); settings: ATCC64124, 24 h, 35° C.
Experimental: as §1

[9] = tested on: Candida albicans ATCC MYA-4788; test: MIC assay, Candida standard strain (CLSI M27-A3); settings: 24 h, 35° C.
Experimental: as §1

[10] = tested on: Candida albicans ATCC 18804; test: MIC assay, Candida standard strain (CLSI M27-A3); settings: ATCC18804, 24 h, 35° C.
Experimental: as §1

[11] = tested on: Candida albicans ATCC 76485; test: MIC assay, Candida standard strain (CLSI M27-A3); settings: ATCC76485, 24 h, 35° C.
Experimental: as §1

[12] = tested on: C. parapsilosis ATCC 22019; test: MIC assay, Candida standard strain (CLSI M27-A3); settings: Lodderomyces parapsilosis, ATCC22019; C. parapsilosis ATCC 22019 (quality-control strain); 24 h, 35° C.
Experimental: as §1

[13] = tested on: Candida albicans ATCC MYA-2876; test: MIC assay, Candida standard strain (CLSI M27-A3); settings: 24 h, 35° C.
Experimental: as §1

[14] = tested on: Candida albicans CICC 1943; test: MIC assay, Candida standard strain (CLSI M27-A3); settings: CICC1943, 24 h, 35° C.
Experimental: as §1

[15] = tested on: Candida albicans ATCC MYA-427; test: MIC assay, Candida standard strain (CLSI M27-A3); settings: 24 h, 35° C.
Experimental: as §1

[16] = tested on: Candida albicans CMCC 98001; test: MIC assay, Candida standard strain (CLSI M27-A3); settings: CMCC98001, 24 h, 35° C.
Experimental: as §1

[17] = tested on: Pichia guilliermondii ATCC 6260; test: MIC assay, yeast-type fungi (CLSI M27-A3); settings: Meyerozyma guilliermondii, ATCC6260, 24 h, 35° C.
Experimental: as §1

[18] = tested on: Cryptococcus neoformans ATCC 208821; test: MIC assay, yeast-type fungi (CLSI M27-A3); settings: ATCC208821, 24 h, 35° C.

Row | SMILES | MEC [1] [µg/mL] | MIC (C. tropicalis ATCC 750) [µg/mL] | MIC [2] [µg/mL] | MIC [3] [µg/mL] | MIC (C. krusei ATCC 6258) [µg/mL] | MIC [4] [µg/mL] | MIC [5] [µg/mL] | MIC (C. glabrata ATCC 15126) [µg/mL] | MIC [6] [µg/mL] | MIC [7] [µg/mL] | MIC [8] [µg/mL] | MIC [9] [µg/mL] | MIC [10] [µg/mL] | MIC [11] [µg/mL] | MIC [12] [µg/mL] | MIC [13] [µg/mL] | MIC [14] [µg/mL] | MIC [15] [µg/mL] | MIC [16] [µg/mL] | MIC [17] [µg/mL] | also measured
1 | CCCCCOc1ccc(C#Cc2ccc3cc(C(=O)N[C@H]4C[C@@H](O)[C@@H](OCC[N+](C)(C)C)NC(=O)[C@@H]5[C@@H](O)[C@@H](C)CN5C(=O)[C@H]([C@@H](C)O)NC(=O)[C@H]([C@H](O)[C@@H](O)c5ccc(O)cc5)NC(=O)[C@@H]5C[C@@H](O)CN5C(=O)[C@H]([C@@H](C)O)NC4=O)ccc3c2)cc1F [Example 10] (X3-[Orn(4R-OH,5R-OCH2CH2NMe3+)]T[Hyp][hTyr(3S-OH,4S-OH)]T[Pro(3S-OH,4S-Me)]; lactam 1-C) | ≤0.015 | ≤ 0.015 | ≤ 0.015 | ≤ 0.015 | 0.06 | 0.03 | ≤ 0.015 | 0.06 | ≤ 0.015 | ≤ 0.015 | ≤ 0.015 | ≤ 0.015 | ≤ 0.015 | ≤ 0.015 | 0.5 | ≤ 0.015 | 0.03 | 0.03 | ≤ 0.015 | 0.25 | MIC [18]: 8 µg/mL
2 | CCCCCOc1c(F)cc(C#Cc2ccc3cc(C(=O)N[C@H]4C[C@@H](O)[C@@H](OCC[N+](C)(C)C)NC(=O)[C@@H]5[C@@H](O)[C@@H](C)CN5C(=O)[C@H]([C@@H](C)O)NC(=O)[C@H]([C@H](O)[C@@H](O)c5ccc(O)cc5)NC(=O)[C@@H]5C[C@@H](O)CN5C(=O)[C@H]([C@@H](C)O)NC4=O)ccc3c2)cc1F [Example 14] (X4-[Orn(4R-OH,5R-OCH2CH2NMe3+)]T[Hyp][hTyr(3S-OH,4S-OH)]T[Pro(3S-OH,4S-Me)]; lactam 1-C) | ≤0.015 | ≤ 0.015 | ≤ 0.015 | ≤ 0.015 | 0.06 | 0.03 | ≤ 0.015 | 0.06 | ≤ 0.015 | ≤ 0.015 | ≤ 0.015 | ≤ 0.015 | ≤ 0.015 | ≤ 0.015 | 0.25 | ≤ 0.015 | 0.03 | 0.03 | ≤ 0.015 | 0.25 | MIC [18]: 8 µg/mL
